US9028856B2, “Synergistic pesticide compositions” (priority 2008, dated 2015)
Where two headings read alike, the source gives them in different places.

Key:
[1] = test system: bait averse/resistant German cockroach (IHOP strain), Blattella germanica; test: Knockdown/mortality of male cockroaches under continuous exposure on treated glazed tile; format: in vivo; details: Table 28, aqueous deltamethrin/adjuvant, IHOP strain
Protocol: Treatments were allowed to dry overnight. […] Treatments were replicated a minimum of three times. Evaluations for cockroach knockdown/mortality were made at various intervals for 1 hour and at 24 hours after exposure.
Treatments were allowed to dry overnight. […] Evaluations for cockroach knockdown/mortality were made at various intervals and at 60 minutes after exposure.
Treatments were allowed to dry overnight. […] Treatments were replicated a minimum of three times.

[2] = test system: Culex quinquefasciatus mosquito; test: USDA Petri Dish Method, 3 min exposure to dipped fiberglass window screen; format: in vivo; details: Table 29, aqueous deltamethrin/adjuvant
Protocol: MATERIALS AND METHODS: Aqueous solutions of 1% deltamethrin with and without adjuvant were prepared using product sold under the tradename Suspend® SC. […] Pre-cut fiberglass screen (5″×5″, or 161.3 cm^2) were dipped in each treatment solution and excessive solution was allowed to drain completely. Weight of the solution coated on the screen was then determined. The treated screen was then allowed to air-dry overnight. USDA Petri Dish Method was used as initial screening protocol. Twenty, 4-6 day old female Culex quinquefasciatus were exposed to treated window screen for 3 minutes and then moved onto a clean untreated white paper index card. Treatments were replicated a minimum of three times. Mosquito knockdown was evaluated at 3 minute intervals for the first 15 minutes and then at 5 minute intervals for the remainder of an hour. A small cotton ball soaked in sucrose solution was added on the screen top of the petri-dish as a drinking source. Mortality was evaluated at 24 hours after exposure.

[3] = test system: bedbug (Cimex lectularius), susceptible strain; test: Contact efficacy against bedbugs on filter papers in glass dishes; format: in vivo
Protocol: Adult Cimex lectularius, susceptible strain, were used. A solution of the active ingredient in acetone was prepared. In the same mode a complete […]. All these works were done under drawing off conditions. After evaporation of the acetone (30′) the dishes were closed by a glass lid and transferred into the test room.
One day later ten bedbugs, anaesthetized with CO2, were counted into each dish. At regular intervals, knock down was recorded (cumulatively).
The same methodology was used as was used in Example 105.

[4] = test system: bait averse/resistant German cockroach (T-164 strain); test: Knockdown/mortality of male cockroaches under continuous exposure on treated glazed tile; format: in vivo, Blattella germanica; parameters: Average % Knockdown & Mortality after 5 hr / Average % Knockdown & Mortality after 30 min: concentration or dose not given beside the values; details: glazed tile
[5] = test system: Blattella germanica, susceptible strain; test: Contact efficacy against cockroaches on glazed tiles (acetone solutions); format: in vivo; details: mean of three replicates; for mortality at 60 mg/m2: imidacloprid 0.1%, 60 mg/m^2, glazed tile; for mortality at 310 mg/m2: imidacloprid 0.5%, 310 mg/m^2, glazed tile; for mortality at 620 mg/m2: imidacloprid 1%, 620 mg/m^2, glazed tile
Protocol: Male Blattella germanica, susceptible strain, were used. A solution of the active ingredient in acetone pipetted onto the corresponding tile on an area of 12.5 cm×12.5 cm.
One day later, a glass ring (diameter 9.5 cm, height 5.5 cm) inner wall treated with talcum was placed on the tile and five male German cockroaches were introduced. Knock down and mortality, respectively, were evaluated after 30′, 1 h, 3 h and 1 d. A water soaked cotton pad was added after 3 hours.
Each trial consisted of three replicates of which the mean values are calculated.

[6] = 0.0000128% Deltamethrin in acetone, first test
[7] = 0.0000128% Deltamethrin in acetone, second test
[8] = 0.000064% Deltamethrin in acetone, first test
[9] = 0.000064% Deltamethrin in acetone, second test
[10] = 0.00032% imidacloprid (1 mg/m^2) in acetone, filter papers, Table 105
[11] = 0.0016% Imidacloprid in acetone, first test
[12] = 0.0016% Imidacloprid in acetone, second test
[13] = 0.0016% imidacloprid (6 mg/m^2) in acetone, filter papers, Table 105
[14] = 0.008% Imidacloprid in acetone, first test
[15] = 0.008% Imidacloprid in acetone, second test
[16] = 0.5 h, read-out: Average % knockdown & mortality after 30 min
[17] = 1 h, read-out: Average % knockdown & mortality after 60 min
[18] = 3 h, read-out: Average % knockdown & mortality after 3 hr
[19] = 24 h, read-out: Average % knockdown & mortality after 24 hr

CC1(C)[C@H](C(=O)O[C@H](C#N)c2cccc(Oc3ccccc3)c2)[C@@H]1C=C(Br)Br [deltamethrin (1%)]
Average % Mortality after 10 min ([1]; 10 min): 20% | Average % Mortality after 30 min ([1]; 30 min): 93% | Average % Mortality after 60 min ([1]; 60 min): 100% | Average % Mortality after 24 hr ([1]; 24 hr): 100% | Average % Knockdown & Mortality after 15 min ([2]; 15 min): 0% | Average % Knockdown & Mortality after 30 min ([2]; 30 min): 2% | Average % Knockdown & Mortality after 45 min ([2]; 45 min): 3% | Average % Knockdown & Mortality after 60 min ([2]; 60 min): 8% | Average % Knockdown & Mortality after 4 hr ([2]; 4 hr): 52% | Average % Knockdown & Mortality after 24 hr ([2]; 24 hr): 86%

CC1(C)[C@H](C(=O)O[C@H](C#N)c2cccc(Oc3ccccc3)c2)[C@@H]1C=C(Br)Br [deltamethrin]
% knock down or moribund after 1 h [3, 6]: 0% | % knock down or moribund after 2 h [3, 6]: 0% | % knock down or moribund after 4 h [3, 6]: 0% | % knock down or moribund after 6 h [3, 6]: 0% | % knock down or moribund after 1 d [3, 6]: 20% | % knock down or moribund after 2 d [3, 6]: 20% | % knock down or moribund after 6 d [3, 6]: 20% | % knock down or moribund after 1 h [3, 7]: 0% | % knock down or moribund after 2 h [3, 7]: 0% | % knock down or moribund after 4 h [3, 7]: 0% | % knock down or moribund after 6 h [3, 7]: 0% | % knock down or moribund after 1 d [3, 7]: 10% | % knock down or moribund after 2 d [3, 7]: 10% | % knock down or moribund after 6 d [3, 7]: 40% | % knock down or moribund after 1 h [3, 8]: 20% | % knock down or moribund after 2 h [3, 8]: 20% | % knock down or moribund after 4 h [3, 8]: 70% | % knock down or moribund after 6 h [3, 8]: 70% | % knock down or moribund after 1 d [3, 8]: 70% | % knock down or moribund after 2 d [3, 8]: 80% | % knock down or moribund after 6 d [3, 8]: 100% | % knock down or moribund after 1 h [3, 9]: 0% | % knock down or moribund after 2 h [3, 9]: 40% | % knock down or moribund after 4 h [3, 9]: 40% | % knock down or moribund after 6 h [3, 9]: 40% | % knock down or moribund after 1 d [3, 9]: 40% | % knock down or moribund after 2 d [3, 9]: 60% | % knock down or moribund after 6 d [3, 9]: 60%

O=[N+]([O-])NC1=NCCN1Cc1ccc(Cl)nc1 [imidacloprid]
Average % Knockdown & Mortality after 45 min ([4]; 45 min, Table 24, imidacloprid/dibutyl sebacate (DBS) in acetone, T-164 strain): 0% | Average % Knockdown & Mortality after 3 hr ([4]; 3 hr, Table 23, imidacloprid/tritylchloride in acetone, T-164 strain): 7% | Average % Knockdown & Mortality after 15 min ([4]; Table 5 (Ex. 2), continuous exposure): 0% | Average % Knockdown & Mortality after 15 min ([4]; Table 6 (Ex. 3), continuous exposure): 0% | Average % Knockdown & Mortality after 15 min ([4]; Table 9 (Ex. 6), continuous exposure): 0% | Average % Knockdown & Mortality after 15 min ([4]; Table 11 (Ex. 8), continuous exposure): 0% | Average % Knockdown & Mortality after 4 hr ([4]; Table 13 (Ex. 10), continuous exposure): 0% | Average % Knockdown & Mortality after 4 hr ([4]; Table 15 (Ex. 12), continuous exposure): 20% | Average % Knockdown & Mortality after 5 hr ([4]; Table 17 (Ex. 14), continuous exposure): 19% | Average % Knockdown & Mortality after 4 hr ([4]; Table 18 (Ex. 15), continuous exposure): 47% | Average % Knockdown & Mortality after 3 hr ([4]; Table 21 (Ex. 18), continuous exposure): 7% | % knock down or moribund after 1 h [3, 10]: 0% | % knock down or moribund after 2 h [3, 10]: 0% | % knock down or moribund after 4 h [3, 10]: 0% | % knock down or moribund after 6 h [3, 10]: 0% | % knock down or moribund after 1 d [3, 10]: 0% | % knock down or moribund after 2 d [3, 10]: 0% | % knock down or moribund after 6 d [3, 10]: 0% | % knock down or moribund after 1 h [3, 11]: 0% | % knock down or moribund after 2 h [3, 11]: 0% | % knock down or moribund after 4 h [3, 11]: 0% | % knock down or moribund after 6 h [3, 11]: 10% | % knock down or moribund after 1 d [3, 11]: 20% | % knock down or moribund after 2 d [3, 11]: 20% | % knock down or moribund after 6 d [3, 11]: 40% | % knock down or moribund after 1 h [3, 12]: 0% | % knock down or moribund after 2 h [3, 12]: 0% | % knock down or moribund after 4 h [3, 12]: 0% | % knock down or moribund after 6 h [3, 12]: 0% | % knock down or moribund after 1 d [3, 12]: 0% | % knock down or moribund after 2 d [3, 12]: 0% | % knock down or moribund after 6 d [3, 12]: 0% | % knock down or moribund after 1 h [3, 13]: 0% | % knock down or moribund after 2 h [3, 13]: 0% | % knock down or moribund after 4 h [3, 13]: 0% | % knock down or moribund after 6 h [3, 13]: 0% | % knock down or moribund after 1 d [3, 13]: 0% | % knock down or moribund after 2 d [3, 13]: 0% | % knock down or moribund after 6 d [3, 13]: 0% | % knock down or moribund after 1 h [3, 14]: 0% | % knock down or moribund after 2 h [3, 14]: 0% | % knock down or moribund after 4 h [3, 14]: 0% | % knock down or moribund after 6 h [3, 14]: 20% | % knock down or moribund after 1 d [3, 14]: 30% | % knock down or moribund after 2 d [3, 14]: 40% | % knock down or moribund after 6 d [3, 14]: 80% | % knock down or moribund after 1 h [3, 15]: 0% | % knock down or moribund after 2 h [3, 15]: 0% | % knock down or moribund after 4 h [3, 15]: 0% | % knock down or moribund after 6 h [3, 15]: 0% | % knock down or moribund after 1 d [3, 15]: 0% | % knock down or moribund after 2 d [3, 15]: 0% | % knock down or moribund after 6 d [3, 15]: 10% | efficacy after 6 days ([3]; Example 106, filter paper, concentrations in the label): 0% | mortality at 60 mg/m2 [5, 16]: 0% | mortality at 310 mg/m2 [5, 16]: 0% | mortality at 620 mg/m2 [5, 16]: 0% | mortality at 60 mg/m2 [5, 17]: 0% | mortality at 310 mg/m2 [5, 17]: 0% | mortality at 620 mg/m2 [5, 17]: 0% | mortality at 60 mg/m2 [5, 18]: 20% | mortality at 310 mg/m2 [5, 18]: 0% | mortality at 620 mg/m2 [5, 18]: 13% | mortality at 60 mg/m2 [5, 19]: 40% | mortality at 310 mg/m2 [5, 19]: 0% | mortality at 620 mg/m2 [5, 19]: 40%
